From ChEMBL document CHEMBL1250532, “Structure-based virtual screening of novel tubulin inhibitors and their characterization as anti-mitotic agents” (Bioorg Med Chem, 2010)

Assays:
HL-60 [1] = assay: Induction of apoptosis in human HL60 cells assessed as fractions of fragmented DNA at 0.25 uM after 48 hrs using propidium iodide staining by flow cytometry (reference value: 1.66%); assay type: functional
HL-60 [2] = assay: Cell cycle arrest in human HL60 cells assessed as accumulation at G2/M phase at 0.1 uM after 24 hrs using propidium iodide staining by flow cytometry (reference value: 22.26%); assay type: functional
HL-60 [3] = assay: Antiproliferative activity against human HL60 cells after 48 hrs by MTT assay; assay type: functional, cell-based; details: HL-60, 48 h
HL-60 [4] = assay: Ratio of compound EC50 to E7010 EC50 for human HL60 cells; assay type: functional
HL-60 [5] = assay: Induction of apoptosis in human HL60 cells assessed as fractions of fragmented DNA at 0.1 uM after 24 hrs using propidium iodide staining by flow cytometry (reference value: 0.53%); assay type: functional
HL-60 [6] = assay: Induction of apoptosis in human HL60 cells assessed as fractions of fragmented DNA at 0.1 uM after 48 hrs using propidium iodide staining by flow cytometry (reference value: 1.66%); assay type: functional
HL-60 [7] = assay: Induction of apoptosis in human HL60 cells assessed as fractions of fragmented DNA at 0.05 uM after 48 hrs using propidium iodide staining by flow cytometry (reference value: 1.66%); assay type: functional
HL-60 [8] = assay: Induction of apoptosis in human HL60 cells after 48 hrs using propidium iodide by flow cytometry; assay type: functional, cell-based; details: for EC50: HL-60, 48 h
HL-60 [9] = assay: Cell cycle arrest in human HL60 cells assessed as accumulation at S phase at 0.1 uM after 24 hrs using propidium iodide staining by flow cytometry (reference value: 17.62%); assay type: functional
HL-60 [10] = assay: Cell cycle arrest in human HL60 cells assessed as accumulation at G0/G1 phase at 0.1 uM after 24 hrs using propidium iodide staining by flow cytometry (reference value: 55.47%); assay type: functional
[11] = Inhibition of polymerization of tubulin by turbidimetry
HL-60 [12] = assay: Cell cycle arrest in human HL60 cells assessed as accumulation at G0/G1 phase at 0.5 uM after 24 hrs using propidium iodide staining by flow cytometry (reference value: 55.47%); assay type: functional
HL-60 [13] = assay: Induction of apoptosis in human HL60 cells assessed as fractions of fragmented DNA at 1 uM after 48 hrs using propidium iodide staining by flow cytometry (reference value: 1.66%); assay type: functional
HL-60 [14] = assay: Induction of apoptosis in human HL60 cells assessed as fractions of fragmented DNA at 0.5 uM after 24 hrs using propidium iodide staining by flow cytometry (reference value: 0.53%); assay type: functional
HL-60 [15] = assay: Cell cycle arrest in human HL60 cells assessed as accumulation at G2/M phase at 0.5 uM after 24 hrs using propidium iodide staining by flow cytometry (reference value: 22.26%); assay type: functional
HL-60 [16] = assay: Cell cycle arrest in human HL60 cells assessed as accumulation at S phase at 0.5 uM after 24 hrs using propidium iodide staining by flow cytometry (reference value: 17.62%); assay type: functional
HL-60 [17] = assay: Induction of apoptosis in human HL60 cells assessed as fractions of fragmented DNA at 0.5 uM after 48 hrs using propidium iodide staining by flow cytometry (reference value: 1.66%); assay type: functional

COc1ccc(C2=CC(c3cc(OC)c(OC)c(OC)c3)n3ncnc3N2)cc1 (configuration not stated)
Activity (HL-60 [1]): 92.36%
Activity (HL-60 [2]): 24.39%
IC50 (HL-60 [3]): 190 nM
Ratio EC50 (HL-60 [4]): 2
Activity (HL-60 [5]): 0.93%
Activity (HL-60 [6]): 77.49%
Activity (HL-60 [7]): 4.94%
Activity (HL-60 [8]): Dose-dependent effect
EC50 (HL-60 [8]): 80 nM
Activity (HL-60 [9]): 18.82%
Activity (HL-60 [10]): 51.67%
IC50 [11]: 10400 nM

COc1cc(/C=C(/C(=O)c2cc(OC)c(OC)c(OC)c2)c2nc3ccccc3o2)cc(OC)c1OC
IC50 (HL-60 [3]): 1700 nM

COc1cc(C2C=C(c3cccs3)Nc3ncnn32)cc(OC)c1OC (configuration not stated)
Activity (HL-60 [12]): 53.87%
Activity (HL-60 [13]): 85.69%
Activity (HL-60 [14]): 0.48%
IC50 (HL-60 [3]): 100 nM
Activity (HL-60 [15]): 25.93%
Activity (HL-60 [7]): 6.03%
Activity (HL-60 [8]): Dose-dependent effect
EC50 (HL-60 [8]): 780 nM
Activity (HL-60 [16]): 15.16%
Activity (HL-60 [17]): 10.35%
IC50 [11]: 12800 nM

COc1cc(C2C=C(c3ccccc3)Nc3ncnn32)cc(OC)c1OC (configuration not stated)
Activity (HL-60 [1]): 60.88%
Activity (HL-60 [2]): 25.82%
IC50 (HL-60 [3]): 170 nM
Ratio EC50 (HL-60 [4]): 2
Activity (HL-60 [5]): 0.81%
Activity (HL-60 [6]): 4.06%
Activity (HL-60 [7]): 4.32%
Activity (HL-60 [8]): Dose-dependent effect
EC50 (HL-60 [8]): 220 nM
Activity (HL-60 [9]): 15.92%
Activity (HL-60 [10]): 53.51%
IC50 [11]: 13700 nM

COc1cc(C2C=C(c3ccc(Cl)cc3)Nc3ncnn32)cc(OC)c1OC (configuration not stated)
IC50 (HL-60 [3]): 390 nM
IC50 [11]: > 25000 nM

COc1cc(C(=O)N2CCCc3ccccc32)cc(OC)c1OC
IC50 (HL-60 [3]): 2000 nM

COc1cc(/C=C(/C(=O)O)c2ccc(-c3ccccc3)cc2)cc(OC)c1OC
IC50 (HL-60 [3]): 2400 nM

COc1ccc(C2=CC(c3cc(OC)c(OC)c(OC)c3)n3ncnc3N2)cc1OC (configuration not stated)
IC50 (HL-60 [3]): 340 nM
IC50 [11]: > 24000 nM

COc1cc(C(=O)/C(=C/c2cccnc2)c2nc3ccccc3o2)cc(OC)c1OC
IC50 (HL-60 [3]): 1700 nM

COc1cc(C(=O)N2CCc3ccccc32)cc(OC)c1OC
IC50 (HL-60 [3]): 2000 nM

COc1ccc(/C=C(/C(=O)c2cc(OC)c(OC)c(OC)c2)c2nc3ccccc3o2)cc1
IC50 (HL-60 [3]): 2400 nM

CCc1ccc(C2=CC(c3cc(OC)c(OC)c(OC)c3)n3ncnc3N2)cc1 (configuration not stated)
IC50 (HL-60 [3]): 370 nM
IC50 [11]: > 25000 nM

COc1cc(C(=O)c2c(C)cn3c(CCC#N)cccc23)cc(OC)c1OC
IC50 (HL-60 [3]): 1400 nM
IC50 [11]: 5000 nM

COc1cc(C2C=C(c3ccc(C)cc3)Nc3ncnn32)cc(OC)c1OC (configuration not stated)
Activity (HL-60 [1]): 90.56%
Activity (HL-60 [2]): 48.64%
IC50 (HL-60 [3]): 130 nM
Ratio EC50 (HL-60 [4]): 2
Activity (HL-60 [5]): 22.94%
Activity (HL-60 [6]): 89.85%
Activity (HL-60 [7]): 4.61%
Activity (HL-60 [8]): Dose-dependent effect
EC50 (HL-60 [8]): 70 nM
Activity (HL-60 [9]): 16.5%
Activity (HL-60 [10]): 9.7%
IC50 [11]: 12800 nM

COc1cc(C(=O)c2c(-c3ccccc3)cc3ccccn23)cc(OC)c1OC
IC50 (HL-60 [3]): 600 nM
IC50 [11]: 20000 nM

COc1cc(C2C=C(c3cccc(NC(C)=O)c3)Nc3ncnn32)cc(OC)c1OC (configuration not stated)
IC50 (HL-60 [3]): 330 nM
IC50 [11]: > 25000 nM

COc1cc(C(=O)N2c3ccccc3CC2C)cc(OC)c1OC (configuration not stated)
IC50 (HL-60 [3]): 3200 nM

COc1ccccc1NC(=O)CSc1nnc(-c2cc(OC)c(OC)c(OC)c2)n1-c1ccc(C)cc1
IC50 (HL-60 [3]): 2400 nM
